Measured values as given in patent publication EP4741383A1, “COMPOUND AND USE THEREOF AS ANTI-CANCER DRUG” (Tyligand Bioscience (Shanghai) Limited, priority 2023, dated 2025).

What was measured:
Format in all cases: biochemical
[1] = molecular target: T1, HePTP (Homo sapiens, UniProt P35236); test: Tyrosine phosphatase selectivity (pNPP substrate), HePTP; conditions: for IC50: HePTP, pNPP substrate; for IC50PTP/IC50SHP2 HePTP: selectivity ratio HePTP over SHP2
T1 construct: made in house; host or cells: E. coli
T1 sequence (P35236 1-360): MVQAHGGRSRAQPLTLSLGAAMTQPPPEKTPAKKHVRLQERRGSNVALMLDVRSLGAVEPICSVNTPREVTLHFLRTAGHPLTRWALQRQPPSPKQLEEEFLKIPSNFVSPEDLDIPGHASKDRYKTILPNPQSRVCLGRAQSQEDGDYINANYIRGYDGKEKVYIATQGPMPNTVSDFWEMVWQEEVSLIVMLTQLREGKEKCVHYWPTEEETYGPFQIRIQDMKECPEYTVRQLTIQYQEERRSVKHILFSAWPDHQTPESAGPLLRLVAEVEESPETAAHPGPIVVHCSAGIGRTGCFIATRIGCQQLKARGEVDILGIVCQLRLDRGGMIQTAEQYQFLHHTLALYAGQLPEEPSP
Description: (§1) This experiment evaluated the selectivity of the disclosed compounds against tyrosine phosphatases, including SHP1, HePTP, Laforin, LMWPTP, LYP, PTP1B, PRL2, SSU72, VHR, FAP1, STEP, CDC14A, CD45, MEG2, and PP5, all expressed and purified from E. coli.
(§2) Phosphatase activity was measured using p-nitrophenyl phosphate (pNPP) (Fisher Scientific) as the substrate in 50 mM 3,3-dimethylglutaric acid buffer (pH 7.0, containing 1 mM EDTA), with ionic strength adjusted to 0.15 M with NaCl. […] After 10-60 minutes, the reaction was quenched by adding 20 µL of 5 N NaOH. Wells without enzyme were used as controls for correction. The amount of the product, p-nitrophenol, was determined by measuring the absorbance at 405 nm using a Spectra MAX340 microplate spectrophotometer (Molecular Devices), with a molar extinction coefficient of 18000 M^-1cm^-1.
(§3) Data were analyzed using GraphPad Prism software. Dose-response curves were obtained by fitting data using the nonlinear S-curve regression Dose-response-inhibition equation, and IC50 values were calculated.

[2] = molecular target: T2, FAP1 (Homo sapiens, UniProt Q12923); test: Tyrosine phosphatase selectivity (pNPP substrate), FAP1; conditions: FAP1, pNPP substrate
T2 sequence (Q12923 2163-2477): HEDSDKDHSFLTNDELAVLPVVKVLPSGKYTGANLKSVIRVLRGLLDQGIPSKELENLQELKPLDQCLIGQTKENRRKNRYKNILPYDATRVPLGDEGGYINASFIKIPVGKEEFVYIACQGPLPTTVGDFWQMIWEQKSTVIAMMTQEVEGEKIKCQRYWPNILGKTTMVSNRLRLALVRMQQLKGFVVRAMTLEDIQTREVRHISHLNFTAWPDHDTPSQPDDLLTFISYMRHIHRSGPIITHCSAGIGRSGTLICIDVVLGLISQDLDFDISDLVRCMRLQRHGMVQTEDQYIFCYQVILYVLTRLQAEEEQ
Description: as §1, §2, §3

[3] = molecular target: T3, LYP (Homo sapiens, UniProt Q9Y2R2); test: Tyrosine phosphatase selectivity (pNPP substrate), LYP; conditions: for IC50: LYP, pNPP substrate; for IC50PTP/IC50SHP2 LYP: selectivity ratio LYP over SHP2
T3 construct: made in house; host or cells: E. coli
T3 sequence (Q9Y2R2 1-807): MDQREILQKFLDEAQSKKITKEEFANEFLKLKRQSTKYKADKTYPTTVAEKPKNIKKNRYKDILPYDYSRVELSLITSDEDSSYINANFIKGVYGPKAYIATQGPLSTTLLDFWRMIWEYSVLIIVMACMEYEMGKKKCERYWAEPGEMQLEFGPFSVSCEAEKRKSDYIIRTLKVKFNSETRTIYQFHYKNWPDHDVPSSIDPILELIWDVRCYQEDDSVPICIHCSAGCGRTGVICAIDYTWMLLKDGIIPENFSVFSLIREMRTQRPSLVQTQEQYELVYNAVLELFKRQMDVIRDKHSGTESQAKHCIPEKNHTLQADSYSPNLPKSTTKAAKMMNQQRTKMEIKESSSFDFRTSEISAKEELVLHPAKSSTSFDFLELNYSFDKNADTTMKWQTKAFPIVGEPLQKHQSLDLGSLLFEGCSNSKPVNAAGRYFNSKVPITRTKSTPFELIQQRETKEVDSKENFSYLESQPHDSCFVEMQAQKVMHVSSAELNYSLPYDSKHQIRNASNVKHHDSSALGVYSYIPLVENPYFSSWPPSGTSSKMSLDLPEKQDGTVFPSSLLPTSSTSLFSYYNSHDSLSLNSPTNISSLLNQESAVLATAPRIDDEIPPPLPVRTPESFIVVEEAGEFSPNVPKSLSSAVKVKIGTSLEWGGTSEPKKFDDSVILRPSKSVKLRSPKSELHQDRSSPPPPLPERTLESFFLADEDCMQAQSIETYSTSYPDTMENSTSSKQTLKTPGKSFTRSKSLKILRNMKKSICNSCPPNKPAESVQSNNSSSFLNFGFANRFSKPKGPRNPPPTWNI
Description: as §1, §2, §3

[4] = molecular target: T4, SSU72 (Homo sapiens, UniProt Q9NP77); test: Tyrosine phosphatase selectivity (pNPP substrate), SSU72; conditions: for IC50: SSU72, pNPP substrate; for IC50PTP/IC50SHP2 SSU72: selectivity ratio SSU72 over SHP2
T4 construct: made in house; host or cells: E. coli
T4 sequence (Q9NP77 1-194): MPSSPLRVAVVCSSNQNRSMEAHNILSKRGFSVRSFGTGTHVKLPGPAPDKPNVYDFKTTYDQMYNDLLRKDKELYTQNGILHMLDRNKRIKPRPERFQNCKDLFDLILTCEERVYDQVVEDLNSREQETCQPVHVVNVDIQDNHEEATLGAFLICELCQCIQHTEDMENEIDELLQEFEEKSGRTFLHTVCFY
Description: as §1, §2, §3

[5] = molecular target: T5, Laforin (Homo sapiens, UniProt O95278); test: Tyrosine phosphatase selectivity (pNPP substrate), Laforin; conditions: for IC50: Laforin, pNPP substrate; for IC50PTP/IC50SHP2 Laforin: selectivity ratio Laforin over SHP2
T5 construct: made in house; host or cells: E. coli
T5 sequence (O95278 1-331): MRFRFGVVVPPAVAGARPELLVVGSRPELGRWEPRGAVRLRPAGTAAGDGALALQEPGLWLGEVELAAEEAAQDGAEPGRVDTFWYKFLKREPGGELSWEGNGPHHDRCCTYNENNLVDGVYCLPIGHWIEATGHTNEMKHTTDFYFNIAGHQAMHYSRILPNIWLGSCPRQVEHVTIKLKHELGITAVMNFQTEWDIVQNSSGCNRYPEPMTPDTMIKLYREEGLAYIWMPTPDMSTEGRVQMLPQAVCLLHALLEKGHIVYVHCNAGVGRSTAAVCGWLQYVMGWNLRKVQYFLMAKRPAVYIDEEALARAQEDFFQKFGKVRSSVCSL
Description: as §1, §2, §3

Row | SMILES | IC50 [1] | IC50PTP/IC50SHP2 HePTP [1] | IC50 [2] | IC50 [3] | IC50PTP/IC50SHP2 LYP [3] | IC50 [4] | IC50PTP/IC50SHP2 SSU72 [4] | IC50 [5] | IC50PTP/IC50SHP2 Laforin [5]
1 | O=C(Nc1ccc(-c2ccsc2)cc1)C(=O)Nc1ccc(-c2cc3cnc(-c4nnn[nH]4)nc3n2C2CCC2)cc1 [Example 131] | 6100 nM | 234.6 | 11000 nM | 500 nM | 19.2 | < 3000 nM | 115.4 | > 20000 nM | 769.2
2 | O=C(Nc1ccc(-c2ccsc2)cc1)C(=O)Nc1ccc(-c2cc3cc(F)c(-c4nnn[nH]4)nc3n2C2CCC2)cc1 [Example 132] | 5700 nM | 211.1 | 13500 nM | 500 nM | 18.5 | < 3000 nM | 111.1 | > 20000 nM | 740.7
3 | Cn1cc(-c2ccc(NC(=O)C(=O)Nc3ccc(-c4cc5cc(F)c(-c6noc(=O)[nH]6)cc5n4C4CCC4)cc3)cc2)cn1 [Example 123] | 1330 nM | 9.4 | 7300 nM | 1070 nM | 7.6 | > 100000 nM | 709.2 | > 100000 nM | 709.2
4 | O=C(Nc1ccc(-c2ccsc2)cc1)C(=O)Nc1ccc(-c2oc3cc(F)c(-c4nnn[nH]4)cc3c2C2CCC2)cc1 [Example 130] | > 20000 nM | 800 | < 3000 nM | 1200 nM | 48 | < 3000 nM | 120 | > 20000 nM | 800
5 | CC1(n2c(-c3ccc(NC(=O)C(=O)Nc4ccc(N5CCC6(CCOC6)CC5)cc4)cc3)cc3cc(F)c(-c4nnn[nH]4)cc32)CCC1 [Example 68] | 1170 nM | 29.3 | 560 nM | 1540 nM | 32.1 |  |  | > 25000 nM | 520.8
6 | O=C(Nc1ccc(-c2ccsc2)cc1)C(=O)Nc1ccc(-c2cc3ccc(-c4nnn[nH]4)nc3n2C2CCC2)cc1 [Example 129] | > 20000 nM | 339.0 | 4200 nM | 1200 nM | 20.3 | 35800 nM | 606.8 | > 20000 nM | 339.0
7 | O=C(Nc1ccc(-c2oc3cc(F)c(-c4nnn[nH]4)cc3c2C2CCC2)cc1)C(=O)Nc1ccc(N2CCC3(CCOC3)CC2)cc1 [Example 125] | 35900 nM | 703.9 | 7440 nM | 2500 nM | 49.0 | > 100000 nM | 1960.8 | > 100000 nM | 1960.8
8 | O=C(Nc1ccc(-c2ccsc2)cc1)C(=O)Nc1ccc(-c2cc3cc(F)c(-c4nnn[nH]4)cc3n2C2CCC2)cc1 [Example 4] | 4500 nM | 155.2 | 19500 nM | 500 nM | 17.2 | < 3000 nM | 103.4 | > 20000 nM | 689.7
9 | O=C(Nc1ccc(-c2cc3cc(F)c(-c4nnn[nH]4)cc3n2C2CCC2)cc1)C(=O)Nc1ccc(N2CC3COCC3C2)cc1 (stereo not drawn) [Example 114] | 1060 nM | 14.7 | 1900 nM | 100 nM | 1.3 | 90 nM | 1.2 | 2440 nM | 33.8
10 | Cn1c(-c2cccc(NC(=O)C(=O)Nc3ccc(-c4ccsc4)cc3)c2)c(I)c2cc(C(=O)O)c(O)cc21 [Example 11a-1, reference compound] | 1030 nM | 9.5 |  | 1050 nM | 9.7 | 1300 nM | 12.0 | 12200 nM | 112
11 | O=C(Nc1ccc(-c2cc3cc(F)c(-c4nnn[nH]4)cc3n2C2CCC2)cc1)C(=O)Nc1ccc(N2CCOCC2)cc1 [Example 47] | 800 nM | 12.6 | 1530 nM | 189 nM | 3.0 | 90 nM | 1.4 | 610 nM | 9.6
12 | O=C(Nc1ccc(-c2cc3cc(F)c(-c4nnn[nH]4)cc3n2C2CCC2)cc1)C(=O)Nc1ccc(N2CCC3(CCOC3)CC2)cc1 [Example 67] | 950 nM | 27.9 | 2340 nM | 76 nM | 2.2 | 16 nM | 0.47 | 6210 nM | 182
13 | Cn1cc(-c2ccc(NC(=O)C(=O)Nc3ccc(-c4cc5cc(F)c(-c6nnc(C(F)(F)F)[nH]6)cc5n4C4CCC4)cc3)cc2)cn1 [Example 124] | > 100000 nM | 139.7 | > 100000 nM | > 100000 nM | 139.7 | > 100000 nM | 139.7 | > 100000 nM | 139.7
